Here are results for one compound from US6914065B2, “Imidazo[1,2-C]pyrimidine derivatives as ligands for gaba receptors” (Merck Sharp & Dohme Ltd., priority 2000, dated 2005).

`Cc1cc2ncc(-c3cccc(-c4ccccc4C#N)c3)n2cn1` [Example 1, 3′-(7-Methylimidazo[1,2-c]pyrimidin-3-yl)biphenyl-2-carbonitrile]: the melting point amounted to 119 °C.

The term melting point denotes the temperature, or range, at which the solid turns liquid.
